As usually defined, the Kd is a measure of binding affinity in units of concentration. The EC50 is the concentration giving half of the maximal effect.

The values below come from US20060099643A1, “Method for determining the regulation of xenobiotic removal” (priority 2002, published 2006).

The target of data set [1] is T1, SXR (Homo sapiens, UniProt O75469).
T1 sequence (O75469 1-434): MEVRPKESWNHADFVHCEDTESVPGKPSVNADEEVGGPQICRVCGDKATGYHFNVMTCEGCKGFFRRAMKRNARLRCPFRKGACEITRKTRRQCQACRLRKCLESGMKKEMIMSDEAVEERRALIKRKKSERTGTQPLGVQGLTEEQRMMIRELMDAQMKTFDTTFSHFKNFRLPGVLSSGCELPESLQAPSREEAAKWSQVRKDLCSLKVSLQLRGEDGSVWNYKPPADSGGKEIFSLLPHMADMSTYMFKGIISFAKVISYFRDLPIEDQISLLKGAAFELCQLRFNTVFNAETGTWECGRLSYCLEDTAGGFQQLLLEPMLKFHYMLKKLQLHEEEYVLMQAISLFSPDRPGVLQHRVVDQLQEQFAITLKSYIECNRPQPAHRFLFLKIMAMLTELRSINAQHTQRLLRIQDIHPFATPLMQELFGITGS
As to conditions: from Ekins & Erickson, Drug Metabolism and Disposition, 30, 96-99 and references therein; cited from earlier work.

The target of data set [2] is T1, SXR. Put plainly: Microplate thermal shift assay (Thermofluor) of SXR with ligands, co-activator peptide SRC1-NR2 and co-repressor peptide NCoR-1. The note with it: for ΔΔTm SRC1-NR2 / ΔTm ligand: SXR 6 μM, ligand 50 μM; for ΔΔTm SRC1-NR2: co-activator peptide SRC1-NR2 100 μM, change from the receptor-ligand ΔTm; for ΔTm ligand: average of four experiments; for Probability Agonist (statistical probability of agonist state): computed from affinities derived from ΔΔTm with co-regulator peptides (FIG. 3); for ΔTm at 100 µM: read-out: ΔΔTm NcoR1-NR2. As for the experimental part:
A 2 μL ligand solution at 2 times the final concentration was dispensed with a micropipette into a 384 well black wall Greiner plate. Then, 2 μL of the protein dye solution was dispensed on top of the ligand solution in the 384 well plate. The plates were spun to ensure mixing of the protein-dye and ligand solutions followed by layering of 1 μL of silicone oil to prevent evaporation during heating of the samples. […] The values for the co-regulators represent a change in Tm stabilization from the receptor-ligand ΔTm values.

`C[C@]12C[C@H](O)[C@H]3[C@@H](CCC4=CC(=O)CC[C@@]43C)[C@@H]1CC[C@@H]2C(=O)CO` [Corticosterone]: on SXR [1], the fold activation is listed as 12 fold. At SXR [2], the Kd was 1.32 µM, the “ΔΔTm SRC1-NR2” value stood at 2.7, the ΔTm ligand was found to be 5 °C and the “Probability Agonist (statistical probability of agonist state)” value is 0.93. The ΔTm at 100 µM at SXR [2] came out at 0.5 °C.

As to `CC[C@H](C)C(=O)O[C@H]1C[C@@H](C)C=C2C=C[C@H](C)[C@H](CC[C@@H]3C[C@@H](O)CC(=O)O3)[C@H]21` [Lovastatin], the fold activation on SXR [1] is 5-fold. Also, on SXR [2], the Kd stood at 0.55 µM, the “ΔΔTm SRC1-NR2” value was 3.0, the ΔTm ligand was 6.3 °C and the “Probability Agonist (statistical probability of agonist state)” value is given as 0.85. Also, on SXR [2], the ΔTm at 100 µM is 1.2 °C.

As to `CC(=O)O[C@H]1C(=O)[C@@]2(C)[C@H]([C@H](OC(=O)c3ccccc3)[C@]3(O)C[C@H](OC(=O)[C@H](O)[C@@H](NC(=O)c4ccccc4)c4ccccc4)C(C)=C1C3(C)C)[C@]1(OC(C)=O)CO[C@@H]1C[C@@H]2O` [Taxol], at SXR [1], the half-maximal effective concentration (EC50) is 5 µM. Also, at SXR [2], the Kd turned out to be 23 µM, the “ΔΔTm SRC1-NR2” value was determined as 2.5, the ΔTm ligand was 1.3 °C and the ΔTm at 100 µM is 4.7 °C.
